The source of these data is US12673921B2, “Substituted fluorine-containing imidazole salt compound, preparation method therefor, pharmaceutical composition thereof and use thereof” (XIAMEN VIVOHEALTHS TECHNOLOGY CO., LTD., priority 2019, dated 2026).

Entries after “also recorded” stand apart in the source; their conditions may differ.

In one series the test system is human hepatocytes. Kind of series: Hepatocyte metabolism assay. It is filed as in vitro ADME. On the procedure: Experimental procedures: a test sample (concentration: 10 μM) or a positive control (concentration: 30 μM) was co-incubated with hepatic cells of various genera (cell density: 1.0×10^6 cells/mL) for 120 min under the conditions of 37° C./5% CO2/saturated humidity. The sample was centrifuged after protein precipitation by using acetonitrile solution containing 0.1% formic acid according to the proportion of 1:2, the supernatant was blown dry by nitrogen, and then redissolved by using 200 μl of a 10% acetonitrile/water (containing 0.1% formic acid) solution. 15 μL of the obtained solution was introduced each time to an LC-MS instrument system for analysis.

In a further series the test system is AMPK. Kind of series: AMPK activation in liver of treated high-fat-fed mice by western blot. It is filed as in vivo, mouse. The following applies: 90 days after s.c. administration.
Source text: […]

In a further series the test system is C57BL/6J male mice. Kind of series: Sugar tolerance test of mice (ip-GTT). The note with it: intragastric 0.2, 2 mg/kg, glucose 1 g/kg i.p. after 2 h. It counts as in vivo, mouse.

With `Cc1n(CCCCCCCCCCCC(F)(F)C(F)(F)C(F)(F)C(F)(F)C(F)(F)F)cc[n+]1Cc1c(Cl)cccc1Cl.[Cl-]` [IB-33], in the series on human hepatocytes (human hepatocyte incubation, 120 min), the “metabolic stability in human hepatocytes (in words)” value is “relatively stable”. Besides, the “relative content of original drug remained” value in the series on human hepatocytes (human hepatocytes, after incubation for 120 min) came out at 79%. The “Relative abundance (MS peak area %)” value with human hepatocytes (incubation of IB-33 10 μM with human hepatocytes, 120 min, parent drug and its possible metabolites) was 79.31%. For the same compound, the “AMPK activation in the mice (p-AMPK Thr172, p-ACC Ser79 by western blot)” value in the series on AMPK was “effectively activate AMPK”. In addition, the “blood sugar in sugar tolerance test (ip-GTT)” value in the series on C57BL/6J male mice was “significantly lower blood sugar; also recorded: effective in lowering blood sugar”.
